What was measured:
Staphylococcus aureus [1] = experiment: Antibacterial activity against methicillin resistant Staphylococcus aureus 6347 cultured in MH medium assessed as reduction in bacterial growth incubated for 48 hrs by microbroth dilution method; type: functional; conditions: Staphylococcus aureus, 6347, 48 h
[2] = system: Staphylococcus epidermidis; experiment: Antibacterial activity against methicillin resistant Staphylococcus epidermidis ATCC 13199 cultured in MH medium assessed as reduction in bacterial growth incubated for 48 hrs by microbroth dilution method; type: functional; conditions: ATCC 13199, 48 h
Escherichia coli [3] = experiment: Antibacterial activity against […] Escherichia coli ATCC 8739 assessed as reduction in bacterial growth incubated for 48 hrs in presence of 50 ug/ml […], PAbetaN by microbroth dilution method; type: functional; conditions: ATCC 8739, 48 h
[4] = Lipophilicity, log k of the compound at 100 ug/ml by micellar electrokinetic chromatography; type: physicochemical
[5] = system: Staphylococcus epidermidis; experiment: Bactericidal activity against methicillin resistant Staphylococcus epidermidis ATCC 13199 cultured in MH medium assessed as reduction in bacterial survival incubated for 48 hrs by microbroth dilution method; type: functional; conditions: ATCC 13199, 48 h
Enterococcus hirae [6] = experiment: Bactericidal activity against Enterococcus hirae ATCC 1052 cultured in BHI medium assessed as reduction in bacterial survival incubated for 48 hrs by microbroth dilution method; type: functional; conditions: ATCC 1052, 48 h
[7] = system: Staphylococcus epidermidis; experiment: Bactericidal activity against Staphylococcus epidermidis ATCC 14990 cultured in MH medium assessed as reduction in bacterial survival incubated for 48 hrs by microbroth dilution method; type: functional; conditions: ATCC 14990, 48 h
Proteus vulgaris [8] = experiment: Bactericidal activity against Proteus vulgaris NCTC 4635 cultured in MH medium assessed as reduction in bacterial survival incubated for 48 hrs by microbroth dilution method; type: functional; conditions: NCTC 4635, 48 h
Escherichia coli [9] = experiment: Bactericidal activity against […] Escherichia coli ATCC 8739 assessed as reduction in bacterial survival incubated for 48 hrs in presence of 50 ug/ml […], PAbetaN by microbroth dilution method; type: functional; conditions: ATCC 8739, 48 h
Staphylococcus aureus [10] = experiment: Antibacterial activity against methicillin resistant Staphylococcus aureus N315 cultured in MH medium assessed as reduction in bacterial growth incubated for 48 hrs by microbroth dilution method; type: functional; conditions: N315, 48 h
Staphylococcus aureus [11] = experiment: Antibacterial activity against Staphylococcus aureus ATCC 6538 cultured in MH medium assessed as reduction in bacterial growth incubated for 48 hrs by microbroth dilution method; type: functional; conditions: ATCC 6538, 48 h
HEK293 [12] = experiment: Cytotoxicity against human HEK293 cells assessed as changes in cell morphology upto 20 uM incubated for 72 hrs by MTT assay; type: cell-based; conditions: hek293, 72 h
Staphylococcus aureus [13] = experiment: Bactericidal activity against methicillin resistant Staphylococcus aureus N315 cultured in MH medium assessed as reduction in bacterial survival incubated for 48 hrs by microbroth dilution method; type: functional; conditions: N315, 48 h
Bacillus spizizenii [14] = experiment: Bactericidal activity against Bacillus subtilis ATCC 6633 cultured in MH medium assessed as reduction in bacterial survival incubated for 48 hrs by microbroth dilution method; type: functional; conditions: ATCC 6633, 48 h
Enterococcus hirae [15] = experiment: Antibacterial activity against Enterococcus hirae ATCC 1052 cultured in BHI medium assessed as reduction in bacterial growth incubated for 48 hrs by microbroth dilution method; type: functional; conditions: ATCC 1052, 48 h
Bacillus spizizenii [16] = experiment: Antibacterial activity against Bacillus subtilis ATCC 6633 cultured in MH medium assessed as reduction in bacterial growth incubated for 48 hrs by microbroth dilution method; type: functional; conditions: ATCC 6633, 48 h
Staphylococcus aureus [17] = experiment: Bactericidal activity against methicillin resistant Staphylococcus aureus 6347 cultured in MH medium assessed as reduction in bacterial survival incubated for 48 hrs by microbroth dilution method; type: functional; conditions: Staphylococcus aureus, 6347, 48 h
HEK293 [18] = experiment: Cytotoxicity against human HEK293 cells assessed as cell viability upto 20 uM incubated for 72 hrs by MTT assay; type: cell-based; conditions: hek293, 72 h
Streptococcus pneumoniae [19] = experiment: Antibacterial activity against Streptococcus pneumoniae cultured in MH medium assessed as reduction in bacterial growth incubated for 48 hrs by microbroth dilution method; type: functional
Serratia marcescens [20] = experiment: Bactericidal activity against Serratia marcescens ATCC 12795 cultured in MH medium assessed as reduction in bacterial survival incubated for 48 hrs by microbroth dilution method; type: functional; conditions: ATCC 12795, 48 h
Escherichia coli [21] = experiment: Bactericidal activity against Escherichia coli ATCC 8739 cultured in MH medium assessed as reduction in bacterial survival incubated for 48 hrs by microbroth dilution method; type: functional; conditions: ATCC 8739, 48 h
Staphylococcus aureus [22] = experiment: Bactericidal activity against Staphylococcus aureus ATCC 6538 cultured in MH medium assessed as reduction in bacterial survival incubated for 48 hrs by microbroth dilution method; type: functional; conditions: ATCC 6538, 48 h
[23] = system: Staphylococcus epidermidis; experiment: Antibacterial activity against Staphylococcus epidermidis ATCC 14990 cultured in MH medium assessed as reduction in bacterial growth incubated for 48 hrs by microbroth dilution method; type: functional; conditions: ATCC 14990, 48 h
Pseudomonas aeruginosa [24] = experiment: Antibacterial activity against Pseudomonas aeruginosa ATCC 9027 cultured in MH medium assessed as reduction in bacterial growth incubated for 48 hrs by microbroth dilution method; type: functional; conditions: ATCC 9027, 48 h
Proteus vulgaris [25] = experiment: Antibacterial activity against Proteus vulgaris NCTC 4635 cultured in MH medium assessed as reduction in bacterial growth incubated for 48 hrs by microbroth dilution method; type: functional; conditions: NCTC 4635, 48 h
Serratia marcescens [26] = experiment: Antibacterial activity against Serratia marcescens ATCC 12795 cultured in MH medium assessed as reduction in bacterial growth incubated for 48 hrs by microbroth dilution method; type: functional; conditions: ATCC 12795, 48 h
Escherichia coli [27] = experiment: Antibacterial activity against Escherichia coli ATCC 8739 cultured in MH medium assessed as reduction in bacterial growth incubated for 48 hrs by microbroth dilution method; type: functional; conditions: ATCC 8739, 48 h
Pseudomonas aeruginosa [28] = experiment: Bactericidal activity against Pseudomonas aeruginosa ATCC 9027 cultured in MH medium assessed as reduction in bacterial survival incubated for 48 hrs by microbroth dilution method; type: functional; conditions: ATCC 9027, 48 h
Streptococcus pneumoniae [29] = experiment: Bactericidal activity against Streptococcus pneumoniae cultured in MH medium assessed as reduction in bacterial survival incubated for 48 hrs by microbroth dilution method; type: functional

Question: What does the source list for `CCn1cc(C(=O)O)c(=O)c2cc(F)c(N3CC[N+]4(CC3)CN3C(C)=CC(C)=C(C(=O)O)C3=N4)nc21.[Cl-]`?
Answer: MIC (Staphylococcus aureus [1]): 128 µg/mL; MIC [2]: 64 µg/mL; MIC (Escherichia coli [3]): 4 µg/mL; log K [4]: -0.3984; MBC [5]: 128 µg/mL; MBC (Enterococcus hirae [6]): 32 µg/mL; MBC [7]: 128 µg/mL; MBC (Proteus vulgaris [8]): 2 µg/mL; MBC (Escherichia coli [9]): 16 µg/mL; MIC (Staphylococcus aureus [10]): 128 µg/mL; MIC (Staphylococcus aureus [11]): 128 µg/mL; Activity (HEK293 [12]): Non-Toxic; MBC (Staphylococcus aureus [13]): 128 µg/mL; MBC (Bacillus spizizenii [14]): 16 µg/mL; MIC (Enterococcus hirae [15]): 16 µg/mL; MIC (Bacillus spizizenii [16]): 16 µg/mL; MBC (Staphylococcus aureus [17]): 128 µg/mL; Activity (HEK293 [18]): Non-Toxic; MIC (Streptococcus pneumoniae [19]): > 512 µg/mL; MBC (Serratia marcescens [20]): 128 µg/mL; MBC (Escherichia coli [21]): 16 µg/mL; MBC (Staphylococcus aureus [22]): 128 µg/mL; MIC [23]: 128 µg/mL; MIC (Pseudomonas aeruginosa [24]): 512 µg/mL; MIC (Proteus vulgaris [25]): 1 µg/mL; MIC (Serratia marcescens [26]): 64 µg/mL; MIC (Escherichia coli [27]): 8 µg/mL; MBC (Pseudomonas aeruginosa [28]): 512 µg/mL

Question: Which MIC (Staphylococcus aureus [1]) does the source give for `COc1c(N2CC[N+]3(CN4C(=N3)C(C(=O)O)=Cc3ccccc34)C(C)C2)c(F)cc2c(=O)c(C(=O)O)cn(C3CC3)c12.[Cl-]` (stereo not drawn) here?
Answer: The MIC was 16 µg/mL.

Question: What about the MIC [2] of the same compound?
Answer: The MIC was 4 µg/mL.

Question: What about the MIC (Escherichia coli [3]) of the same compound?
Answer: Its MIC is 0.125 µg/mL.

Question: What about the “log K” value [4] of the same compound?
Answer: Its value is -0.1255.

Question: What about the MBC [5] of the same compound?
Answer: The MBC was 8 µg/mL.

Question: What about the MBC [7] of the same compound?
Answer: The MBC was 32 µg/mL.

Question: What about the MBC (Proteus vulgaris [8]) of the same compound?
Answer: Its MBC is 4 µg/mL.

Question: What about the MBC (Escherichia coli [9]) of the same compound?
Answer: Its MBC is 0.5 µg/mL.

Question: And the MIC (Staphylococcus aureus [10])?
Answer: The MIC was 32 µg/mL.

Question: And the MIC (Staphylococcus aureus [11])?
Answer: Its MIC is 16 µg/mL.

Question: And the Activity (HEK293 [12])?
Answer: Its Activity is “Non-Toxic”.

Question: And the MBC (Staphylococcus aureus [13])?
Answer: The MBC was 32 µg/mL.

Question: What about the MBC (Streptococcus pneumoniae [29]) of the same compound?
Answer: The MBC was 256 µg/mL.

Question: What about the MBC (Bacillus spizizenii [14]) of the same compound?
Answer: The MBC was 32 µg/mL.

Question: And the MIC (Enterococcus hirae [15])?
Answer: The MIC was greater than 512 µg/mL.

Question: And the MIC (Bacillus spizizenii [16])?
Answer: The MIC was 32 µg/mL.

Question: What about the MBC (Staphylococcus aureus [17]) of the same compound?
Answer: Its MBC is 16 µg/mL.

Question: And the Activity (HEK293 [18])?
Answer: The Activity was “Non-Toxic”.

Question: And the MIC (Streptococcus pneumoniae [19])?
Answer: The MIC was 128 µg/mL.

Question: What about the MBC (Serratia marcescens [20]) of the same compound?
Answer: The MBC was 64 µg/mL.

Question: What about the MBC (Escherichia coli [21]) of the same compound?
Answer: Its MBC is 0.5 µg/mL.

Question: What about the MBC (Staphylococcus aureus [22]) of the same compound?
Answer: Its MBC is 16 µg/mL.

Question: What about the MIC [23] of the same compound?
Answer: Its MIC is 32 µg/mL.

Question: And the MIC (Pseudomonas aeruginosa [24])?
Answer: The MIC was 128 µg/mL.

Question: What about the MIC (Proteus vulgaris [25]) of the same compound?
Answer: Its MIC is 4 µg/mL.

Question: And the MIC (Serratia marcescens [26])?
Answer: The MIC was 64 µg/mL.

Question: What about the MIC (Escherichia coli [27]) of the same compound?
Answer: The MIC was 0.25 µg/mL.

Question: And the MBC (Pseudomonas aeruginosa [28])?
Answer: Its MBC is 128 µg/mL.

Question: For `CC1=CC(C)=C(C(=O)O)C2=N[N+]3(CCN(c4cc5c(cc4F)c(=O)c(C(=O)O)cn5C4CC4)CC3)CN12.[Cl-]`, which MIC (Staphylococcus aureus [1]) is on record?
Answer: Its MIC is 128 µg/mL.

Question: What about the MIC [2] of the same compound?
Answer: Its MIC is 4 µg/mL.

Question: What about the MIC (Escherichia coli [3]) of the same compound?
Answer: The MIC was 0.5 µg/mL.

Question: What about the “log K” value [4] of the same compound?
Answer: The value was -0.3214.

Question: And the MBC [5]?
Answer: Its MBC is 8 µg/mL.

Question: And the MBC [7]?
Answer: Its MBC is 64 µg/mL.

Question: And the MBC (Proteus vulgaris [8])?
Answer: Its MBC is 2 µg/mL.

Question: And the MBC (Escherichia coli [9])?
Answer: Its MBC is 2 µg/mL.

Question: What about the MIC (Staphylococcus aureus [10]) of the same compound?
Answer: Its MIC is 32 µg/mL.

Question: And the MIC (Staphylococcus aureus [11])?
Answer: Its MIC is 128 µg/mL.

Question: What about the Activity (HEK293 [12]) of the same compound?
Answer: The Activity was “Non-Toxic”.

Question: And the MBC (Staphylococcus aureus [13])?
Answer: Its MBC is 32 µg/mL.

Question: And the MBC (Bacillus spizizenii [14])?
Answer: The MBC was 8 µg/mL.

Question: And the MIC (Enterococcus hirae [15])?
Answer: The MIC was greater than 512 µg/mL.

Question: And the MIC (Bacillus spizizenii [16])?
Answer: Its MIC is 8 µg/mL.

Question: What about the MBC (Staphylococcus aureus [17]) of the same compound?
Answer: Its MBC is 128 µg/mL.

Question: And the Activity (HEK293 [18])?
Answer: The Activity was “Non-Toxic”.

Question: And the MIC (Streptococcus pneumoniae [19])?
Answer: The MIC was greater than 512 µg/mL.

Question: And the MBC (Serratia marcescens [20])?
Answer: The MBC was 64 µg/mL.

Question: And the MBC (Escherichia coli [21])?
Answer: Its MBC is 8 µg/mL.

Question: What about the MBC (Staphylococcus aureus [22]) of the same compound?
Answer: Its MBC is 128 µg/mL.

Question: What about the MIC [23] of the same compound?
Answer: The MIC was 64 µg/mL.

Question: And the MIC (Pseudomonas aeruginosa [24])?
Answer: The MIC was 128 µg/mL.

Question: What about the MIC (Proteus vulgaris [25]) of the same compound?
Answer: The MIC was 2 µg/mL.

Question: And the MIC (Serratia marcescens [26])?
Answer: The MIC was 64 µg/mL.

Question: What about the MIC (Escherichia coli [27]) of the same compound?
Answer: The MIC was 8 µg/mL.

Question: What about the MBC (Pseudomonas aeruginosa [28]) of the same compound?
Answer: Its MBC is 128 µg/mL.

— ChEMBL document CHEMBL4396913, “Synthesis and biological evaluation of hybrid quinolone-based quaternary ammonium antibacterial agents” (Eur J Med Chem, 2019)
